# Laboratory results published in article PMC5218480 (PLoS ONE, 2017).
# Test system: MV-4-11 cells
# Assay: Gene expression microarray analysis (Affymetrix PrimeView) and GSEA
# Assay type: cell-based, human
# Parameters: RFU PODN (11730768_x_at) / Fold change /veh PODN (11730768_x_at) / RFU LINC00158 (11744669_a_at) / Fold change /veh LINC00158 (11744669_a_at) / RFU DUSP10 (11751237_a_at) / Fold change /veh DUSP10 (11751237_a_at) / RFU ID3 (11757404_x_at) / Fold change /veh ID3 (11757404_x_at) / RFU PLEKHG5 (11737974_s_at) / Fold change /veh PLEKHG5 (11737974_s_at) / RFU LRRC4B (11730491_at) / Fold change /veh LRRC4B (11730491_at) / RFU GIMAP4 (11747438_a_at) / Fold change /veh GIMAP4 (11747438_a_at) / RFU KRT8 (11758183_x_at) / Fold change /veh KRT8 (11758183_x_at) / RFU CNN1 (11734310_a_at) / Fold change /veh CNN1 (11734310_a_at) / RFU VPS37D (11726825_at) / Fold change /veh VPS37D (11726825_at) / RFU C10orf10 (11716522_x_at) / Fold change /veh C10orf10 (11716522_x_at) / RFU KIR2DL2 /// KIR2DL4 /// KIR2DL5A /// KIR2DL5B /// KIR2DS1 /// KIR2DS2 /// KIR2DS3 /// KIR2DS4 /// KIR3DL3 /// KIR3DL3 /// KIR3DS1 (11738374_at) / Fold change /veh KIR2DL2 /// KIR2DL4 /// KIR2DL5A /// KIR2DL5B /// KIR2DS1 /// KIR2DS2 /// KIR2DS3 /// KIR2DS4 /// KIR3DL3 /// KIR3DL3 /// KIR3DS1 (11738374_at) / RFU C1QL1 (11718748_at) / Fold change /veh C1QL1 (11718748_at) / RFU TMPRSS4 (11747572_a_at) / Fold change /veh TMPRSS4 (11747572_a_at) / RFU HAMP (11756126_x_at) / Fold change /veh HAMP (11756126_x_at) / RFU RNFT2 (11725882_a_at) / Fold change /veh RNFT2 (11725882_a_at) / RFU NR4A2 (11747474_a_at) / Fold change /veh NR4A2 (11747474_a_at) / RFU ABCC12 (11746883_a_at) / Fold change /veh ABCC12 (11746883_a_at) / RFU TMEM136 (11760407_x_at) / Fold change /veh TMEM136 (11760407_x_at) / RFU CLDN22 /// WWC2 (11732394_at) / Fold change /veh CLDN22 /// WWC2 (11732394_at) / RFU HLA-DPB1 (11760878_x_at) / Fold change /veh HLA-DPB1 (11760878_x_at) / RFU SPINT1 (11716480_a_at) / Fold change /veh SPINT1 (11716480_a_at) / RFU GAP43 (11754022_s_at) / Fold change /veh GAP43 (11754022_s_at) / RFU A4GNT (11735810_at) / Fold change /veh A4GNT (11735810_at) / RFU PRB3 (11715151_x_at) / Fold change /veh PRB3 (11715151_x_at) / RFU TUBB4B (11761932_at) / Fold change /veh TUBB4B (11761932_at) / RFU CAPN14 (11732068_a_at) / Fold change /veh CAPN14 (11732068_a_at) / RFU TMCC2 (11721928_a_at) / Fold change /veh TMCC2 (11721928_a_at) / RFU IRGQ (11745062_a_at) / Fold change /veh IRGQ (11745062_a_at) / RFU FAM174B (11720279_a_at) / Fold change /veh FAM174B (11720279_a_at) / RFU TMPRSS4 (11748680_a_at) / Fold change /veh TMPRSS4 (11748680_a_at) / RFU FAM212B (11763350_a_at) / Fold change /veh FAM212B (11763350_a_at) / RFU PLEKHG5 (11743358_a_at) / Fold change /veh PLEKHG5 (11743358_a_at) / RFU ZSCAN30 (11745921_a_at) / Fold change /veh ZSCAN30 (11745921_a_at) / RFU CMKLR1 (11741424_a_at) / Fold change /veh CMKLR1 (11741424_a_at) / RFU LOC101060620 /// MAPK8IP1 (11723275_at) / Fold change /veh LOC101060620 /// MAPK8IP1 (11723275_at) / RFU SPTSSB (11747773_x_at) / Fold change /veh SPTSSB (11747773_x_at) / RFU PRSS12 (11739890_at) / Fold change /veh PRSS12 (11739890_at) / RFU BIN1 (11741810_x_at) / Fold change /veh BIN1 (11741810_x_at) / RFU WNT11 (11732464_a_at) / Fold change /veh WNT11 (11732464_a_at) / RFU C10orf10 (11716521_a_at) / Fold change /veh C10orf10 (11716521_a_at) / RFU C5orf56 (11738089_at) / Fold change /veh C5orf56 (11738089_at) / RFU CYB561 (11721691_x_at) / Fold change /veh CYB561 (11721691_x_at) / RFU ANKRD19P (11752326_a_at) / Fold change /veh ANKRD19P (11752326_a_at) / RFU OR2T12 /// OR2T33 /// OR2T8 (11738714_s_at) / Fold change /veh OR2T12 /// OR2T33 /// OR2T8 (11738714_s_at) / RFU VCAN (11748164_a_at) / Fold change /veh VCAN (11748164_a_at) / RFU JSRP1 (11732532_at) / Fold change /veh JSRP1 (11732532_at) / RFU KRTAP10-11 (11738290_x_at) / Fold change /veh KRTAP10-11 (11738290_x_at) / RFU MYO3A (11730013_a_at) / Fold change /veh MYO3A (11730013_a_at) / RFU EBF3 (11725865_a_at) / Fold change /veh EBF3 (11725865_a_at) / RFU CAMK2N1 (11719241_x_at) / Fold change /veh CAMK2N1 (11719241_x_at) / RFU C5orf56 (11738088_a_at) / Fold change /veh C5orf56 (11738088_a_at) / RFU OLFML3 (11715873_a_at) / Fold change /veh OLFML3 (11715873_a_at) / RFU LOC100653217 /// NTM (11731650_a_at) / Fold change /veh LOC100653217 /// NTM (11731650_a_at) / RFU MAPK11 (11762145_a_at) / Fold change /veh MAPK11 (11762145_a_at) / RFU FIZ1 (11724087_x_at) / Fold change /veh FIZ1 (11724087_x_at) / RFU OASL (11726364_x_at) / Fold change /veh OASL (11726364_x_at) / RFU SOX15 (11748057_x_at) / Fold change /veh SOX15 (11748057_x_at) / RFU CD79A (11719716_a_at) / Fold change /veh CD79A (11719716_a_at) / RFU HIST1H1D (11736915_at) / Fold change /veh HIST1H1D (11736915_at) / RFU CASKIN2 (11723855_a_at) / Fold change /veh CASKIN2 (11723855_a_at) / RFU LOC730098 (11760151_x_at) / Fold change /veh LOC730098 (11760151_x_at) / RFU OR4N2 (11742367_at) / Fold change /veh OR4N2 (11742367_at) / RFU PRRT2 (11749266_a_at) / Fold change /veh PRRT2 (11749266_a_at) / RFU SNX32 (11753110_a_at) / Fold change /veh SNX32 (11753110_a_at) / RFU CDHR5 (11726645_a_at) / Fold change /veh CDHR5 (11726645_a_at) / RFU RCAN1 (11760418_a_at) / Fold change /veh RCAN1 (11760418_a_at) / RFU FAM167A (11723789_a_at) / Fold change /veh FAM167A (11723789_a_at) / RFU FAM26E (11764081_at) / Fold change /veh FAM26E (11764081_at) / RFU ISYNA1 (11749810_s_at) / Fold change /veh ISYNA1 (11749810_s_at) / RFU ACY1 (11761880_at) / Fold change /veh ACY1 (11761880_at) / RFU 11764098_at / Fold change /veh 11764098_at / RFU SAMD14 (11745864_x_at) / Fold change /veh SAMD14 (11745864_x_at) / RFU NPB (11741838_a_at) / Fold change /veh NPB (11741838_a_at) / RFU TMPRSS6 (11731388_a_at) / Fold change /veh TMPRSS6 (11731388_a_at) / RFU KRTAP10-2 (11738614_at) / Fold change /veh KRTAP10-2 (11738614_at) / RFU ARHGAP8 /// PRR5-ARHGAP8 (11727945_x_at) / Fold change /veh ARHGAP8 /// PRR5-ARHGAP8 (11727945_x_at) / RFU KRTAP5-7 /// NADSYN1 (11734609_at) / Fold change /veh KRTAP5-7 /// NADSYN1 (11734609_at) / RFU RASL12 (11751679_a_at) / Fold change /veh RASL12 (11751679_a_at) / RFU CDKN2B (11736163_a_at) / Fold change /veh CDKN2B (11736163_a_at) / RFU PRF1 (11729649_at) / Fold change /veh PRF1 (11729649_at) / RFU, ZNF638 /// ZNF638-IT1 / Fold change vs veh, ZNF638 /// ZNF638-IT1 / RFU, PANK3 / Fold change vs veh, PANK3 / RFU, SH3YL1 / Fold change vs veh, SH3YL1 / RFU, ZEB2 / Fold change vs veh, ZEB2 / RFU, NRIP1 / Fold change vs veh, NRIP1 / RFU, PTTG1IP / Fold change vs veh, PTTG1IP / RFU, CAPN2 / Fold change vs veh, CAPN2 / RFU, MED14 / Fold change vs veh, MED14 / RFU, SNORA58 / Fold change vs veh, SNORA58 / RFU, C1orf63 / Fold change vs veh, C1orf63 / RFU, LRRFIP1 / Fold change vs veh, LRRFIP1 / RFU, NDUFAF7 / Fold change vs veh, NDUFAF7 / RFU, SLC12A2 / Fold change vs veh, SLC12A2 / RFU, IBTK / Fold change vs veh, IBTK / RFU, ESF1 / Fold change vs veh, ESF1 / Fold change vs veh, TMEM50B / RFU, TAOK1 / Fold change vs veh, TAOK1 / RFU, ACBD3 / Fold change vs veh, ACBD3 / RFU, TMA16 / Fold change vs veh, TMA16 / RFU, RWDD3 / Fold change vs veh, RWDD3 / RFU, BCAT1 / Fold change vs veh, BCAT1 / RFU, EDEM3 / Fold change vs veh, EDEM3 / RFU, TMEM33 / Fold change vs veh, TMEM33 / RFU, WDR75 / Fold change vs veh, WDR75 / RFU, AHCTF1 / Fold change vs veh, AHCTF1 / RFU, TFRC / Fold change vs veh, TFRC / RFU, ZDHHC17 / Fold change vs veh, ZDHHC17 / RFU, NOM1 / Fold change vs veh, NOM1 / RFU, ARL8B / Fold change vs veh, ARL8B / RFU, ZBTB11 / Fold change vs veh, ZBTB11 / RFU, TAMM41 / Fold change vs veh, TAMM41 / RFU, KIAA1704 /// LOC100996395 / Fold change vs veh, KIAA1704 /// LOC100996395 / RFU, ING1 / Fold change vs veh, ING1 / RFU, TRMT61B / Fold change vs veh, TRMT61B / RFU, FUBP3 / Fold change vs veh, FUBP3 / RFU, TP53 / Fold change vs veh, TP53 / RFU, TNKS2 / Fold change vs veh, TNKS2 / RFU, ZFP14 / Fold change vs veh, ZFP14 / RFU, ACTR2 / Fold change vs veh, ACTR2 / RFU, PPP3R1 / Fold change vs veh, PPP3R1 / RFU, PIK3R1 / Fold change vs veh, PIK3R1 / RFU, HNRNPA1 / Fold change vs veh, HNRNPA1 / RFU, RNF170 / Fold change vs veh, RNF170 / RFU, ZNF28 / Fold change vs veh, ZNF28 / RFU, RNGTT / Fold change vs veh, RNGTT / RFU, OGT / Fold change vs veh, OGT / RFU, BRD1 / Fold change vs veh, BRD1 / RFU, MARS / Fold change vs veh, MARS / RFU, ZNF655 / Fold change vs veh, ZNF655 / RFU, FAHD1 / Fold change vs veh, FAHD1 / RFU, BDP1 / Fold change vs veh, BDP1 / RFU, LRRCC1 / Fold change vs veh, LRRCC1 / RFU, ARID1A / Fold change vs veh, ARID1A / RFU, ZNF146 / Fold change vs veh, ZNF146 / RFU, ZNF330 / Fold change vs veh, ZNF330 / RFU, GPN3 / Fold change vs veh, GPN3 / RFU, C9orf123 / Fold change vs veh, C9orf123 / RFU, N4BP2L2 / Fold change vs veh, N4BP2L2 / RFU, ARFIP1 / Fold change vs veh, ARFIP1 / RFU, FAM179B / Fold change vs veh, FAM179B / RFU, BCL10 / Fold change vs veh, BCL10 / RFU, UHRF1BP1L / Fold change vs veh, UHRF1BP1L / RFU, BET1 / Fold change vs veh, BET1 / RFU, CNOT2 / Fold change vs veh, CNOT2 / RFU, ZNF268 / Fold change vs veh, ZNF268 / Fold change vs veh, ZNF507 / RFU, DGCR2 / Fold change vs veh, DGCR2 / RFU, WDSUB1 / Fold change vs veh, WDSUB1 / Fold change vs veh, HSP90B1 /// MIR3652 / RFU, ADSS / Fold change vs veh, ADSS / RFU, GK / Fold change vs veh, GK / RFU, ZNF148 / Fold change vs veh, ZNF148 / RFU, TAF9 / Fold change vs veh, TAF9 / RFU, SLC1A5 / Fold change vs veh, SLC1A5 / RFU, SLMO2 / Fold change vs veh, SLMO2 / RFU, ABCC4 / Fold change vs veh, ABCC4 / RFU, LOC101060439 /// RAP1B / Fold change vs veh, LOC101060439 /// RAP1B / RFU, RFX7 / Fold change vs veh, RFX7 / RFU, GTPBP10 / Fold change vs veh, GTPBP10 / RFU, CNEP1R1 / Fold change vs veh, CNEP1R1 / RFU, BIVM-ERCC5 /// ERCC5 / Fold change vs veh, BIVM-ERCC5 /// ERCC5 / RFU, ILF3 / Fold change vs veh, ILF3 / RFU 11762660_at / Fold change /veh 11762660_at / RFU VCAN (11757783_s_at) / Fold change /veh VCAN (11757783_s_at) / RFU DDX43 (11728927_at) / Fold change /veh DDX43 (11728927_at) / RFU KRT8 (11758188_x_at) / Fold change /veh KRT8 (11758188_x_at) / RFU NKD1 (11759106_at) / Fold change /veh NKD1 (11759106_at) / RFU SRD5A1 (11742802_a_at) / Fold change /veh SRD5A1 (11742802_a_at) / RFU TPSAB1 /// TPSB2 (11721975_s_at) / Fold change /veh TPSAB1 /// TPSB2 (11721975_s_at) / RFU GSTM3 (11746129_a_at) / Fold change /veh GSTM3 (11746129_a_at) / RFU IL23R (11737362_x_at) / Fold change /veh IL23R (11737362_x_at) / RFU TMEM51 (11727254_a_at) / Fold change /veh TMEM51 (11727254_a_at) / RFU PIWIL2 (11732686_x_at) / Fold change /veh PIWIL2 (11732686_x_at) / RFU ORM1 (11744905_x_at) / Fold change /veh ORM1 (11744905_x_at) / RFU CCDC152 (11743942_at) / Fold change /veh CCDC152 (11743942_at) / RFU ECM1 (11717891_a_at) / Fold change /veh ECM1 (11717891_a_at) / RFU IL23R (11748794_a_at) / Fold change /veh IL23R (11748794_a_at) / RFU TNFAIP8L3 (11732012_x_at) / Fold change /veh TNFAIP8L3 (11732012_x_at) / RFU MBOAT4 (11741988_at) / Fold change /veh MBOAT4 (11741988_at) / RFU 11764193_at / Fold change /veh 11764193_at / RFU TMEM53 (11763286_at) / Fold change /veh TMEM53 (11763286_at) / RFU MAGEB2 (11727129_at) / Fold change /veh MAGEB2 (11727129_at) / RFU TMEM200A (11744735_a_at) / Fold change /veh TMEM200A (11744735_a_at) / RFU CCDC152 (11751479_a_at) / Fold change /veh CCDC152 (11751479_a_at) / RFU FAM211A (11726209_a_at) / Fold change /veh FAM211A (11726209_a_at) / RFU RGS16 (11746705_a_at) / Fold change /veh RGS16 (11746705_a_at) / RFU VCAN (11755009_s_at) / Fold change /veh VCAN (11755009_s_at) / RFU RHOB (11743442_s_at) / Fold change /veh RHOB (11743442_s_at) / RFU RGS16 (11720943_a_at) / Fold change /veh RGS16 (11720943_a_at) / RFU RGS16 (11720944_at) / Fold change /veh RGS16 (11720944_at) / RFU, VPS4B / Fold change vs veh, VPS4B / RFU, CREB1 / Fold change vs veh, CREB1 / RFU, DNAJC13 / Fold change vs veh, DNAJC13 / RFU, GNAQ / Fold change vs veh, GNAQ / RFU, CDK5R1 / Fold change vs veh, CDK5R1 / RFU, ZRANB3 / Fold change vs veh, ZRANB3 / RFU, CUL4A / Fold change vs veh, CUL4A / RFU, CCNY / Fold change vs veh, CCNY / RFU, UFL1 / Fold change vs veh, UFL1 / RFU, COG3 / Fold change vs veh, COG3 / RFU, DIAPH2 / Fold change vs veh, DIAPH2 / RFU, SKA2 / Fold change vs veh, SKA2 / RFU, AFF3 / Fold change vs veh, AFF3 / RFU, LMF1 / Fold change vs veh, LMF1 / RFU, IPO11 / Fold change vs veh, IPO11 / RFU, DFFB / Fold change vs veh, DFFB / RFU, FOXP1 / Fold change vs veh, FOXP1 / RFU, CARD8 / Fold change vs veh, CARD8 / RFU, STRN3 / Fold change vs veh, STRN3 / RFU, ADK / Fold change vs veh, ADK / RFU, RASSF2 / Fold change vs veh, RASSF2 / RFU, WIPF1 / Fold change vs veh, WIPF1 / RFU, LARP1B / Fold change vs veh, LARP1B / RFU, RASA1 / Fold change vs veh, RASA1 / RFU, RB1 / Fold change vs veh, RB1 / RFU, PPFIA1 / Fold change vs veh, PPFIA1 / RFU, MAT2A / Fold change vs veh, MAT2A / RFU, CCT5 / Fold change vs veh, CCT5 / RFU, WDR92 / Fold change vs veh, WDR92 / RFU, CUX1 / Fold change vs veh, CUX1 / RFU, TTC7A / Fold change vs veh, TTC7A / RFU, TMEM135 / Fold change vs veh, TMEM135 / RFU, DEPTOR / Fold change vs veh, DEPTOR / RFU, CPM / Fold change vs veh, CPM / RFU, DNAJB6 / Fold change vs veh, DNAJB6 / RFU, CACNA2D3 / Fold change vs veh, CACNA2D3 / RFU, DTX4 / Fold change vs veh, DTX4 / RFU, TFCP2 / Fold change vs veh, TFCP2 / RFU, GMCL1 /// GMCL1P1 / Fold change vs veh, GMCL1 /// GMCL1P1 / RFU, AEBP2 / Fold change vs veh, AEBP2 / RFU, SNHG1 /// SNORD22 /// SNORD25 /// SNORD26 /// SNORD27 /// SNORD28 /// SNORD29 /// SNORD31 / Fold change vs veh, SNHG1 /// SNORD22 /// SNORD25 /// SNORD26 /// SNORD27 /// SNORD28 /// SNORD29 /// SNORD31 / Fold change (Aza/veh), C12orf56 (ProbeSet 11735607_a_at) / Fold change (ACY-1035/veh), C12orf56 (ProbeSet 11735607_a_at) / Fold change (Aza/veh), FGFR1OP (ProbeSet 11751329_s_at) / Fold change (ACY-1035/veh), FGFR1OP (ProbeSet 11751329_s_at) / Fold change (Aza/veh), VPS36 (ProbeSet 11739960_a_at) / Fold change (ACY-1035/veh), VPS36 (ProbeSet 11739960_a_at) / RFU SYPL1 (11715823_x_at) / Fold change /veh SYPL1 (11715823_x_at) / RFU IGFBP7 (11715501_s_at) / Fold change /veh IGFBP7 (11715501_s_at) / RFU REEP3 (11722064_at) / Fold change /veh REEP3 (11722064_at) / RFU IGLL1 (11728026_x_at) / Fold change /veh IGLL1 (11728026_x_at): dose or concentration left out as unconfirmed
# Conditions: ProbeSet 11716931_at; LIST B
structure (smiles),measurement,value
Nc1ccc(-c2cccs2)cc1NC(=O)c1ccc2c(c1)cc(C1CC1)n2CCN1CCOCC1 [ACY-1035],"RFU, DGCR2",215.86 RFU
